Laboratory results published in PMC3752001 (European journal of pharmacology, 2012).
pEC50, pIC50: −log10 of the molar value. Several values for one entry are separate records, joined by “and”; a condition that tells them apart may be missing. Equal values may be shown once. Where a name gives a salt, the structure may show the parent alone. Read-outs that look alike come from different tables or passages of the source. Blank lines part the entries; values can stand above or below the compound they belong to.

Legend:
[1] = molecular target: α7 nicotinic acetylcholine receptors (Homo sapiens, UniProt P36544); test: Two-electrode voltage clamp, α7 receptors in Xenopus oocytes; assay type: cell-based
Sequence of α7 nicotinic acetylcholine receptors (P36544 23-502): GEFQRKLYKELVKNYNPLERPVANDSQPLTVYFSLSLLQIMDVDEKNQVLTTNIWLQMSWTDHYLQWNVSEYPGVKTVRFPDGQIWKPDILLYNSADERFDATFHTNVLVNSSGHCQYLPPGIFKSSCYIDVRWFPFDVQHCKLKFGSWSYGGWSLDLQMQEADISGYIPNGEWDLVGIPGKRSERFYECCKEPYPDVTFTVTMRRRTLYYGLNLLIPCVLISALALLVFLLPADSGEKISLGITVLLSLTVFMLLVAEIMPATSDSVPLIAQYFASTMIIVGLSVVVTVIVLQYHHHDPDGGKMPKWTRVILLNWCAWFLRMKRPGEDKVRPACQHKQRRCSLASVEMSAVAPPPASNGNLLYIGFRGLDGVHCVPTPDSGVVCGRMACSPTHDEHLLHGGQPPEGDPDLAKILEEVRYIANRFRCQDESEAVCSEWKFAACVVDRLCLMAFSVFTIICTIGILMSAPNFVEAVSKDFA

[2] = molecular target: low sensitivity (LS) α4β2 nicotinic acetylcholine receptors (Homo sapiens, UniProt P17787+P43681); test: Two-electrode voltage clamp, low sensitivity; assay type: cell-based; conditions: for Imax (%) potentiation: dFBr co-applied with 100 μM acetylcholine (EC75)
Sequence of low sensitivity (LS) α4β2 nicotinic acetylcholine receptors (P43681 27-627): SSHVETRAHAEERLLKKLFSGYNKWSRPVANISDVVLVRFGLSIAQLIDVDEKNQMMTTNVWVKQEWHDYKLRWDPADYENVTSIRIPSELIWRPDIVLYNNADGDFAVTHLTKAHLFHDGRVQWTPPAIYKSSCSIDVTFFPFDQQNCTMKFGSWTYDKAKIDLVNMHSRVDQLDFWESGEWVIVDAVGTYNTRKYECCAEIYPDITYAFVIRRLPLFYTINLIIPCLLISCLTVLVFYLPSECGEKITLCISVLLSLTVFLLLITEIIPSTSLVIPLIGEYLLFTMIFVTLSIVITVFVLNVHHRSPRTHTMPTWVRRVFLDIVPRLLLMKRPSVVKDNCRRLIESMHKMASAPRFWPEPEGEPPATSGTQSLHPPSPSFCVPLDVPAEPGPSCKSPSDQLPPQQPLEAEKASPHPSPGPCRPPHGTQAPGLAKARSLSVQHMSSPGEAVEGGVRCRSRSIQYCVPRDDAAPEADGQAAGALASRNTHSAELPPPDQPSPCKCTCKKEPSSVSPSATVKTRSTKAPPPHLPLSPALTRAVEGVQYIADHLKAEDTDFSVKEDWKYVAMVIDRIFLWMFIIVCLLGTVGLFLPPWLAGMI
Sequence of low sensitivity (LS) α4β2 nicotinic acetylcholine receptors (P17787 26-502): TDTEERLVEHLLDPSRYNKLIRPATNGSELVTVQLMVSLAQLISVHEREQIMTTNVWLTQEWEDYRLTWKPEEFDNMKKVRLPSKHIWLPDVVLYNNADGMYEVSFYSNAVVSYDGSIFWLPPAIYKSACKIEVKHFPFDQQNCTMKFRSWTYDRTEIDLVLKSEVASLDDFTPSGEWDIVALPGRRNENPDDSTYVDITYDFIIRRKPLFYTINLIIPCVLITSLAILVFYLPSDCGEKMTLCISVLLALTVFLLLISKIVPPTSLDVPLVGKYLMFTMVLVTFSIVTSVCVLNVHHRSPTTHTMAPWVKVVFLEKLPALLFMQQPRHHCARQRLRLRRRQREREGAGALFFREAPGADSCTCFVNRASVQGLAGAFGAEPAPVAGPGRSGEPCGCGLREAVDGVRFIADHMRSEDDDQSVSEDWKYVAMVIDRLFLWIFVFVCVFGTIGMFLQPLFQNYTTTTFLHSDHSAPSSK

[3] = molecular target: HS β2D218A α4β2 receptors (Homo sapiens, UniProt P17787+P43681, D218A); test: Two-electrode voltage clamp, HS β2D218A mutant preparation in Xenopus oocytes; assay type: cell-based; conditions: for nH ± S.E.M.: ACh concentration/response, HSβ2D218A
Sequence of HS β2D218A α4β2 receptors (P43681 27-627): as the sequence (P43681 27-627) above
Sequence of HS β2D218A α4β2 receptors (P17787 26-502 D218A): as the sequence (P17787 26-502) above, with D193A counted along it

[4] = molecular target: LS β2D218A α4β2 receptors (Homo sapiens, UniProt P17787+P43681, D218A); test: Two-electrode voltage clamp, LS β2D218A mutant preparation in Xenopus oocytes; assay type: cell-based; conditions: for nH ± S.E.M.: ACh concentration/response, LSβ2D218A
Sequence of LS β2D218A α4β2 receptors (P43681 27-627): as the sequence (P43681 27-627) above
Sequence of LS β2D218A α4β2 receptors (P17787 26-502 D218A): as the sequence (P17787 26-502) above, with D193A counted along it

[5] = molecular target: high sensitivity (HS) α4β2 nicotinic acetylcholine receptors (Homo sapiens, UniProt P17787+P43681); test: Two-electrode voltage clamp, high sensitivity; assay type: cell-based
Sequence of high sensitivity (HS) α4β2 nicotinic acetylcholine receptors (P43681 27-627): as the sequence (P43681 27-627) above
Sequence of high sensitivity (HS) α4β2 nicotinic acetylcholine receptors (P17787 26-502): as the sequence (P17787 26-502) above

[6] = tested on: human and rat 5-hydroxytryptamine transporters (SERT); conditions: HEPES concentrations greater than 1 mM; ref Li et al., 2002; cited from earlier work

Compound: CC(=O)OCC[N+](C)(C)C [ACh, acetylcholine chloride]
Hill slope ([1]; acetylcholine, α7, phosphate ND-96 buffer): 0.79 ± 0.13
nH ± S.E.M. [2]: 1.2 ± 0.1 and 1.2 ± 0.2
nH ± S.E.M. ([3]; HEPES ND-96 buffer): 1.1 ± 0.3
nH ± S.E.M. ([3]; phosphate ND-96 buffer): 0.9 ± 0.3
nH ± S.E.M. ([4]; HEPES ND-96 buffer): 1.0 ± 0.1
nH ± S.E.M. ([4]; phosphate ND-96 buffer): 0.8 ± 0.2
change of acetylcholine pEC50 [5]: not significantly changed
nH ± S.E.M. [5]: 0.9 ± 0.2 and 1.0 ± 0.2

effect of HEPES on responses to acetylcholine ([1]; HEPES ≤ 10 mM co-applied with 1 mM acetylcholine, α7): little observable effect
potentiation by HEPES ([3]; HEPES co-applied with 10 μM acetylcholine, HS β2D218A, phosphate ND-96): not potentiated
potentiation by HEPES ([4]; HEPES co-applied with 100 μM acetylcholine, LS β2D218A, phosphate ND-96): remained insensitive
pIC50 [5]: 3.37
potentiation of the acetylcholine-induced Imax currents ([5]; 100 μM HEPES, HS, phosphate ND-96): 194%
current induced by HEPES alone ([5]; HEPES applied alone to α4β2 expressing oocytes (data not shown)): no induced current
maximum potentiation of acetylcholine induced responses ([5]; HEPES co-applied with 10 μM acetylcholine, HS, 2 mM phosphate ND-96, pH 7.4): 190%
Compound: O=S(=O)(O)CCN1CCN(CCO)CC1 [HEPES, 4-(2-hydroxyethyl)-1-piperazineethanesulfonic acid]
effect of HEPES on acetylcholine response ([2]; HEPES co-applied with 100 μM acetylcholine, LS, phosphate ND-96): only a slight inhibition of the response with no observable potentiation
decrease of SERT currents [6]: 10–50%

Compound: C=CC(C)(C)c1[nH]c2cc(Br)ccc2c1CCNC [dFBr, Desformylflustrabromine · HCl]
pEC50 [2]: 5.89
pIC50 [2]: 5.20
Imax (%) potentiation ([2]; LS, HEPES ND-96 buffer): 260%
Imax (%) potentiation ([2]; LS, phosphate ND-96 buffer): 370%
pEC50 [5]: 5.49
pIC50 [5]: 4.10
Imax (%) potentiation [5]: 370% and 360%
potentiation by dFBr [5]: ~360%
pEC50 ([5]; EC50 (potentiation)): 5.60
pIC50 ([5]; IC50 (inhibition phase)): 4.30

Compound: Tris (hydroxymethyl)-aminomethane hydrochloride
effect of Tris on acetylcholine response ([2]; Tris ≤ 10 mM co-applied with 100 μM acetylcholine, LS, phosphate ND-96): only slightly inhibited
effect of Tris on the dFBr potentiated response ([2]; Tris ≤ 10 mM, with 1 μM dFBr and acetylcholine, LS, phosphate ND-96): only slightly inhibited
inhibition of acetylcholine response ([5]; 10 mM Tris co-applied with 10 μM acetylcholine, HS, phosphate ND-96): 50%
inhibition of the dFBr potentiated acetylcholine induced response ([5]; 10 mM Tris, with 1 μM dFBr and acetylcholine, HS, phosphate ND-96): about 50%
current induced by Tris alone ([5]; Tris in phosphate buffer in the absence of acetylcholine): did not induce currents
